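How tested: cells in 96-well plates exposed to compound for 48 hours at five concentrations. GI50: concentration for 50% inhibition of growth. Definition used: TGI = concentration required for complete inhibition of growth.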
How the values were obtained:
Experiment in all cases: DTP human tumour cell line panel, 48 h
SK-MEL-2 melanoma = tested on: SK-MEL-2 melanoma
OVCAR-4 ovarian = tested on: OVCAR-4 ovarian
OVCAR-5 ovarian = tested on: OVCAR-5 ovarian
KM12 colon = tested on: KM12 colon
SK-OV-3 ovarian = tested on: SK-OV-3 ovarian
HT29 colon = tested on: HT29 colon
K-562 leukemia = tested on: K-562 leukemia
SR leukemia = tested on: SR leukemia
HCT-15 colon = tested on: HCT-15 colon
OVCAR-8 ovarian = tested on: OVCAR-8 ovarian
UACC-257 melanoma = tested on: UACC-257 melanoma
SF-295 CNS = tested on: SF-295 CNS
OVCAR-3 ovarian = tested on: OVCAR-3 ovarian
RPMI-8226 leukemia = tested on: RPMI-8226 leukemia
UO-31 renal = tested on: UO-31 renal
MDA-MB-231 breast = tested on: MDA-MB-231 breast
HOP-92 NSCLC = tested on: HOP-92 NSCLC
EKVX NSCLC = tested on: EKVX NSCLC
T-47D breast = tested on: T-47D breast
HS 578T breast = tested on: HS 578T breast
DU-145 prostate = tested on: DU-145 prostate
A549 NSCLC = tested on: A549 NSCLC
TK-10 renal = tested on: TK-10 renal
HCT-116 colon = tested on: HCT-116 colon
SW-620 colon = tested on: SW-620 colon
CAKI-1 renal = tested on: CAKI-1 renal
786-0 renal = tested on: 786-0 renal
MDA-MB-435 = tested on: MDA-MB-435
SN12C renal = tested on: SN12C renal
LOX IMVI melanoma = tested on: LOX IMVI melanoma
ACHN renal = tested on: ACHN renal
MALME-3M melanoma = tested on: MALME-3M melanoma
RXF 393 renal = tested on: RXF 393 renal
SF-268 CNS = tested on: SF-268 CNS
NCI-H460 lung = tested on: NCI-H460 lung
IGROV1 ovarian = tested on: IGROV1 ovarian
BT-549 breast = tested on: BT-549 breast
HL-60(TB) leukemia = tested on: HL-60(TB) leukemia
UACC-62 melanoma = tested on: UACC-62 melanoma
A498 renal = tested on: A498 renal
MOLT-4 leukemia = tested on: MOLT-4 leukemia
SF-539 CNS = tested on: SF-539 CNS
SK-MEL-5 melanoma = tested on: SK-MEL-5 melanoma
MCF7 breast = tested on: MCF7 breast
NCI-H23 lung = tested on: NCI-H23 lung
NCI-H522 lung = tested on: NCI-H522 lung
HCC-2998 colon = tested on: HCC-2998 colon
SK-MEL-28 melanoma = tested on: SK-MEL-28 melanoma
HOP-62 NSCLC = tested on: HOP-62 NSCLC
M14 melanoma = tested on: M14 melanoma
NCI-H226 lung = tested on: NCI-H226 lung
SNB-75 CNS = tested on: SNB-75 CNS
PC-3 prostate = tested on: PC-3 prostate
U251 CNS = tested on: U251 CNS
CCRF-CEM leukemia = tested on: CCRF-CEM leukemia
SNB-19 CNS = tested on: SNB-19 CNS
COLO 205 colon = tested on: COLO 205 colon
NCI/ADR-RES ovarian = tested on: NCI/ADR-RES ovarian

CC(=C(c1ccc(OCCN2CCCC2)cc1)c1ccc(OCCN2CCCC2)cc1)c1ccc(Cl)cc1
GI50 (SK-MEL-2 melanoma): 3100 nM | TGI (SK-MEL-2 melanoma): 6220 nM | GI50 (OVCAR-4 ovarian): 2650 nM | TGI (OVCAR-4 ovarian): 5390 nM | GI50 (OVCAR-5 ovarian): 2560 nM | TGI (OVCAR-5 ovarian): 4900 nM | GI50 (KM12 colon): 2660 nM | TGI (KM12 colon): 5630 nM | GI50 (SK-OV-3 ovarian): 2900 nM | TGI (SK-OV-3 ovarian): 5490 nM | GI50 (HT29 colon): 660 nM | TGI (HT29 colon): 2520 nM | GI50 (K-562 leukemia): 498 nM | TGI (K-562 leukemia): 1750 nM | GI50 (SR leukemia): 745 nM | TGI (SR leukemia): 16700 nM | GI50 (HCT-15 colon): 655 nM | TGI (HCT-15 colon): 2530 nM | GI50 (OVCAR-8 ovarian): 3250 nM | TGI (OVCAR-8 ovarian): 7160 nM | GI50 (UACC-257 melanoma): 2970 nM | TGI (UACC-257 melanoma): 5850 nM | GI50 (SF-295 CNS): 2690 nM | TGI (SF-295 CNS): 5140 nM | GI50 (OVCAR-3 ovarian): 2640 nM | TGI (OVCAR-3 ovarian): 5300 nM | GI50 (RPMI-8226 leukemia): 2570 nM | TGI (RPMI-8226 leukemia): 6740 nM | GI50 (UO-31 renal): 2240 nM | TGI (UO-31 renal): 4460 nM | GI50 (MDA-MB-231 breast): 2370 nM | TGI (MDA-MB-231 breast): 4950 nM | GI50 (HOP-92 NSCLC): 1490 nM | TGI (HOP-92 NSCLC): 3920 nM | GI50 (EKVX NSCLC): 2270 nM | TGI (EKVX NSCLC): 4650 nM | GI50 (T-47D breast): 1940 nM | TGI (T-47D breast): 5020 nM | GI50 (HS 578T breast): 2680 nM | TGI (HS 578T breast): 6590 nM | GI50 (DU-145 prostate): 2600 nM | TGI (DU-145 prostate): 5140 nM | GI50 (A549 NSCLC): 2740 nM | TGI (A549 NSCLC): 5740 nM | GI50 (TK-10 renal): 2580 nM | TGI (TK-10 renal): 5210 nM | GI50 (HCT-116 colon): 1150 nM | TGI (HCT-116 colon): 3580 nM | GI50 (SW-620 colon): 2160 nM | TGI (SW-620 colon): 4540 nM | GI50 (CAKI-1 renal): 2500 nM | TGI (CAKI-1 renal): 4850 nM | GI50 (786-0 renal): 2110 nM | TGI (786-0 renal): 4520 nM | GI50 (MDA-MB-435): 2620 nM | TGI (MDA-MB-435): 5030 nM | GI50 (SN12C renal): 2500 nM | TGI (SN12C renal): 4980 nM | GI50 (LOX IMVI melanoma): 516 nM | TGI (LOX IMVI melanoma): 2620 nM | GI50 (ACHN renal): 2530 nM | TGI (ACHN renal): 4780 nM | GI50 (MALME-3M melanoma): 2630 nM | TGI (MALME-3M melanoma): 5180 nM | GI50 (RXF 393 renal): 2010 nM | TGI (RXF 393 renal): 4200 nM | GI50 (SF-268 CNS): 2700 nM | TGI (SF-268 CNS): 5460 nM | GI50 (NCI-H460 lung): 2960 nM | TGI (NCI-H460 lung): 5580 nM | GI50 (IGROV1 ovarian): 2560 nM | TGI (IGROV1 ovarian): 5110 nM | GI50 (BT-549 breast): 2630 nM | TGI (BT-549 breast): 5120 nM | GI50 (HL-60(TB) leukemia): 3010 nM | TGI (HL-60(TB) leukemia): 6340 nM | GI50 (UACC-62 melanoma): 2850 nM | TGI (UACC-62 melanoma): 5520 nM | GI50 (A498 renal): 2450 nM | TGI (A498 renal): 4850 nM | GI50 (MOLT-4 leukemia): 1380 nM | TGI (MOLT-4 leukemia): 4390 nM | GI50 (SF-539 CNS): 2340 nM | TGI (SF-539 CNS): 4670 nM | GI50 (SK-MEL-5 melanoma): 2740 nM | TGI (SK-MEL-5 melanoma): 5210 nM | GI50 (MCF7 breast): 409 nM | TGI (MCF7 breast): 2730 nM | GI50 (NCI-H23 lung): 2690 nM | TGI (NCI-H23 lung): 5200 nM | GI50 (NCI-H522 lung): 2960 nM | TGI (NCI-H522 lung): 5990 nM | GI50 (HCC-2998 colon): 2700 nM | TGI (HCC-2998 colon): 5320 nM | GI50 (SK-MEL-28 melanoma): 2640 nM | TGI (SK-MEL-28 melanoma): 5100 nM | GI50 (HOP-62 NSCLC): 2930 nM | TGI (HOP-62 NSCLC): 5970 nM | GI50 (M14 melanoma): 2130 nM | TGI (M14 melanoma): 4590 nM | GI50 (NCI-H226 lung): 3040 nM | TGI (NCI-H226 lung): 6180 nM | GI50 (SNB-75 CNS): 6850 nM | TGI (SNB-75 CNS): 16700 nM | GI50 (PC-3 prostate): 2290 nM | TGI (PC-3 prostate): 4790 nM | GI50 (U251 CNS): 2200 nM | TGI (U251 CNS): 4880 nM | GI50 (CCRF-CEM leukemia): 1400 nM | TGI (CCRF-CEM leukemia): 4720 nM | GI50 (SNB-19 CNS): 2790 nM | TGI (SNB-19 CNS): 5300 nM | GI50 (COLO 205 colon): 2730 nM | TGI (COLO 205 colon): 6140 nM | GI50 (NCI/ADR-RES ovarian): 2810 nM | TGI (NCI/ADR-RES ovarian): 5720 nM
